From patent US9108905B2, “TRPA1 antagonists” (AbbVie Inc., priority 2008, dated 2015)

How the values were obtained:
Human TRPA1 = Human TRPA1 (Homo sapiens (Human), UniProt O75762); experiment: FLIPR based intracellular Ca2+ assay and membrane potential assay, inhibition of AITC-activated TRPA1; format: cell-based; conditions: Table 1, AITC as agonist, HEK293-F cells transiently expressing human TRPA1
Procedure: Molecular biology and transient expression were performed as described in Chen, J. et al., Journal of Biomolecular Screening 2007, 12, 61-69. Briefly, TRPA1 full length cDNA was amplified from human dorsal root ganglia total RNA (BD Bioscience Clontech, Palo Alto, Calif., USA) and was cloned into pcDNA3.1/V5-His Topo vector (Invitrogen, Carlsbad, Calif.). Large scale transient transfection was performed using the FreeStyle™ 293 Expression System as recommended by the manufacturer (Invitrogen). HEK293-F cells were grown in suspension in flasks (cell volume 30 mL to 1 liter) or in a Wave Bioreactor (Wave Biotech, Somerset, N.J.) (6 liters). To support high density, suspension culture and transfection, cells were cultured in FreeStyle 293 media, an optimized, serum free formulation. 293fectin™ (Invitrogen) was used as transfection reagent. In a transfection of 3×10^7 cells (30 mL volume), 30 μg of plasmid DNA and 40 μL 293 fectin were used. For a larger volume transfection, each reagent was scaled up proportionally. Two days post-transfection, cells were harvested by centrifugation (1000×g, 5 minutes) and resuspended to a density of 1.5×10^7 cells/mL in freezing medium (Freestyle media/10% serum/10% DMSO). Cells were transferred into cryovials in 2 mL aliquots, and these vials were placed in Nalgene Mr. Frosty slow-freeze devices (Sigma-Aldrich, St. Louis, Mo.) at −80° C. As needed, vials were removed from −80° C. and quickly thawed in a 37° C. water bath. Cells were aseptically transferred into conical tubes containing Freestyle media (10 mL/vial). After centrifugation at 1,000×g for 3-5 minutes, medium was removed by aspiration and cells were resuspended in Freestyle medium at desired densities (typically 1×10^6 cells/mL). Re-suspended cells were seeded into black-walled clear-bottom 96-well Biocoat™ poly-D-lysine assay plates (BD Biosciences, Bedford, Mass.)(10^5 cells/well) and incubated overnight at 37° C. under a humidified 5% CO2 atmosphere.
FLIPR Based Intracellular Ca^2+ Assay and Membrane Potential Assay
Ca^2+ influx was measured using a FLIPR calcium assay kit (R8033; Molecular Devices, Sunnyvale, Calif.). The Ca^2+ indicator dye was dissolved in Hanks' balanced salt solution supplemented with 20 mM HEPES buffer (HBSS/HEPES) according to the manufacturer instructions. […] (4×) solutions of the test compounds were prepared in HBSS/HEPES, and 50 μL were added to the cells at a delivery rate of 10 μL/sec. Changes in fluorescence were measured over time in a fluorometric imaging plate reader (FLIPR, Molecular Devices). Two additions were made over the course of an experimental run. For agonist experiments, assay buffer was added at the 10 s time point, followed by addition of agonist at the 3 minute 10 sec time point. For antagonist experiments, the antagonist was added at the 10 sec time point, followed by addition of the agonist 3 minutes later. Final assay volume for both the agonist and antagonist experiments was 200 μL. Total length of an experimental run was 6.5 minutes.
Data was analyzed with GraphPad Prism® software (GraphPad Software, San Diego, Calif.), using a four-parameter logistic Hill equation to curve-fit concentration-effect data and derive EC50 or IC50 values. Numerical values are reported as mean±SEM (n=number of experiments). SEM is calculated by dividing the standard deviation by the square root of the sample size […].
Changes in membrane potential were measured in hTRPA1-expressing LSTT cells using a FLIPR membrane potential assay kit (R8034, Molecular Devices). The procedure for thawing and plating the LSTT cells was identical to the Ca^2+ influx assay (see above). The membrane potential dye was dissolved in HBSS/HEPES buffer according to the manufacturer's instructions, and then cells were loaded with dye (100 μL/well) for 45 minutes to 2 hours at room temperature.

[1] = Pharmacokinetics after oral dose in fasted male Sprague-Dawley rats (plasma and brain); format: in vivo; conditions: rat
Procedure: Groups of three fasted male Sprague-Dawley rats received a 10 μmol/kg ([…]) oral dose of the test compound, administered by gavage. The compounds were prepared as a solution in a 10% DMSO/poly(ethylene glycol)-400 (v/v). Blood samples were obtained from each animal at various time points up to eight hours after dosing.
Test compound was selectively extracted from plasma and brain homogenate using liquid-liquid extraction with tert-butylmethylether. The compounds of interest were separated from co-extracted contaminants on a 50×3 mm, Luna CN column (Phenomenex), with an acetonitrile:0.1% aqueous trifluoroacetic acid mobile phase at a flow rate of 0.35 ml/min. Plasma concentrations were determined by HPLC-MS/MS on an API2000 with Turbo Ion Spray interface, with MRM detection in the positive ionization mode. To calibrate compound concentration, a separate portion of each tissue sample was spiked with a known quantity of test compound and analyzed simultaneously with the samples.

osteoarthritic rats = experiment: Effects on hind limb grip force in MIA-induced osteoarthritic rats; format: in vivo
Procedure: Unilateral knee joint osteoarthritis was induced in the rats by a single intra-articular (i.a.) injection of sodium monoiodoacetate (MIA) (Sigma, St. Louis, Mo.) (3 mg in 0.05 mL sterile isotonic saline) into the joint cavity using a 26G needle under light (2-4%) halothane (Halocarbon Laboratories, River Edge, N.J.) anesthesia. Following injection, the animals were allowed to recover from the effects of anesthesia (usually 5-10 minutes) before returning them to their home cages. Animals were tested 21 days after MIA injection. Measurements of peak hind limb grip force were conducted by recording the maximum compressive force exerted on the hind limb strain gauge setup, in a commercially available grip force
(§1) FIG. 1—depicts the effect of Example 1 on hindlimb grip force in osteoarthritic rats measurement system (Columbus Instruments, Columbus, Ohio). […] During testing, each rat was gently restrained by grasping around its rib cage and then allowed to grasp the wire mesh frame (10-12 cm^2) attached to the strain gauge. The experimenter then moved the animal in a rostral-to-caudal direction until the grip was broken. Each rat was sequentially tested twice at approximately 2-minute interval to obtain a raw mean grip force (CFmax). […] At the 100 μmol/kg dose in the osteoarthritis grip force model, the measured plasma concentration of Example 1 was 6.2 μM.

[2] = Plasma concentration measured in the osteoarthritis grip force model; format: in vivo, rats
Excerpt: as §1, with “(CFmax). This raw mean grip force data was in turn converted to a maximum hind limb compressive force (CFmax) (gram force) per kg body weight for each animal. A group of age matched naïve animals was added to each experiment and the data obtained from the different dose groups for the compound being tested were compared to the naïve group.” for “(CFmax).”

Sequence of Human TRPA1 (O75762 whole entry): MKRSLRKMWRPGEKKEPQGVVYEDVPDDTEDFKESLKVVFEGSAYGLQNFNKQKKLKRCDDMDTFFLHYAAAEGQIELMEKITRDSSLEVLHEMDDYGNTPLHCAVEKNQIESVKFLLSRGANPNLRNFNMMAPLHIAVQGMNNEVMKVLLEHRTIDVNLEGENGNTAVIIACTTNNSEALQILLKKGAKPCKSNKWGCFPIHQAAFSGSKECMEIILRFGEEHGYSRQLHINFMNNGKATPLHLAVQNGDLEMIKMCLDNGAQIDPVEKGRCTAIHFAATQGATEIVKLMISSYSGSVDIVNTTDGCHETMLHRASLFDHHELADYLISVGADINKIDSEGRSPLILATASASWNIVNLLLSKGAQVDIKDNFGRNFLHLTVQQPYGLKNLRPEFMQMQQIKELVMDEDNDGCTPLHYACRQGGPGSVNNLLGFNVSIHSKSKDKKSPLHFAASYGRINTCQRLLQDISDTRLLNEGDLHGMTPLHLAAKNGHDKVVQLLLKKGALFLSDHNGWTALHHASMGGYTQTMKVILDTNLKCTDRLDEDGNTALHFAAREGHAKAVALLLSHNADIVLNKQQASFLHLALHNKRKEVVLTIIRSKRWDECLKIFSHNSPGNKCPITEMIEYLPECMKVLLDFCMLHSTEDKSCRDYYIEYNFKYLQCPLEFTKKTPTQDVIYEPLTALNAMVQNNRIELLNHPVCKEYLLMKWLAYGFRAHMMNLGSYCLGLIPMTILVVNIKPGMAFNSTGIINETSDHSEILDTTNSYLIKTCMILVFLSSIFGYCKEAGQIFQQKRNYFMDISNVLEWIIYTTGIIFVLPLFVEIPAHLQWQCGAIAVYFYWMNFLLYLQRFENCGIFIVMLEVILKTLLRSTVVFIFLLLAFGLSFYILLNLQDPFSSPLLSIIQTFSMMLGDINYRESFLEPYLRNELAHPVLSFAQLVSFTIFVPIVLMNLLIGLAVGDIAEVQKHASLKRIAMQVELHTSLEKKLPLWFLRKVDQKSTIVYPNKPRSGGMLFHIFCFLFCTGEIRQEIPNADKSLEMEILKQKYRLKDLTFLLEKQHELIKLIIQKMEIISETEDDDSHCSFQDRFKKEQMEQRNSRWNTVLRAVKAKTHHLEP

IC50 (Human TRPA1)	Molecule	further results
> 100 µM	CCC(=N\O)/C(C)=C/c1ccc(F)c(C(F)(F)F)c1 [Example 18, (1E,3E)-1-[4-fluoro-3-(trifluoromethyl)phenyl]-2-methylpent-1-en-3-one oxime]	–
> 100 µM	CCC(=N\O)/C(C)=C/c1ccc(F)c(C)c1 [Example 17, (1E,3E)-1-(4-fluoro-3-methylphenyl)-2-methylpent-1-en-3-one oxime]	–
0.85 µM	CC(=C\c1ccc(F)cc1)/C(=N\O)C(C)C [Example 7, (1E,3Z)-1-(4-fluorophenyl)-2,4-dimethylpent-1-en-3-one oxime]	–
0.5 µM	CCCC(=N\O)/C(C)=C/c1ccc(F)cc1 [Example 4, (1E,3E)-1-(4-fluorophenyl)-2-methylhex-1-en-3-one oxime]	–
–	CCC(=N\O)/C(C)=C/c1ccc(F)cc1 [Example 1, (1E,3E)-1-(4-fluorophenyl)-2-methylpent-1-en-3-one oxime]	Cmax ([1]; 10 umol/kg, oral, plasma): 720 nM; Kp ([1]; brain and plasma, 10 μmol/kg, after oral administration, text calls it brain/plasma ratio): 1.2; bioavailability ([1]; plasma, 10 umol/kg, oral gavage, solution in 10% DMSO/PEG-400): 38%; ED50 (osteoarthritic rats; Rattus norvegicus, po, 21 days after MIA injection, 95% CI 79-158 μmol/kg, read-out: ED50, hindlimb grip force): 112 µmol/kg; efficacy in osteoarthritis grip force model (osteoarthritic rats; p.o.): fully efficacious; measured plasma concentration ([2]; 100 μmol/kg oral dose, osteoarthritis grip force model): 6.2 µM; plasma and brain exposure ([2]; with increasing oral dose, rat): excellent plasma and brain exposure
5.91 µM	CCCC(/C=C/c1ccc(F)cc1)=N\O [Example 12, (1E,3E)-1-(4-fluorophenyl)hex-1-en-3-one oxime]	–
9.46 µM	(1E,3E)-1-(4-fluorophenyl)pent-1-en-3-one oxime and (1E,3Z)-1-(4-fluorophenyl)pent-1-en-3-one oxime, about 1:1 mixture [Example 13]	–
0.574 µM	CCC(=N\O)/C(C)=C/c1ccc(F)c(F)c1 [Example 14, (1E,3E)-1-(3,4-difluorophenyl)-2-methylpent-1-en-3-one oxime]	–
4.67 µM	CCC(=N\O)/C(C)=C/c1cc(F)c(F)c(F)c1 [Example 15, (1E,3E)-2-methyl-1-(3,4,5-trifluorophenyl)pent-1-en-3-one oxime]	–
8 µM	CC(=C\c1ccc(F)cc1)/C(=N/O)C(C)(C)C [Example 5, (1E,3E)-1-(4-fluorophenyl)-2,4,4-trimethylpent-1-en-3-one oxime]	–
6 µM	CCC(=N\O)/C(C)=C/c1ccc(F)c(Cl)c1 [Example 9, (1E,3E)-1-(3-chloro-4-fluorophenyl)-2-methylpent-1-en-3-one oxime]	–
4.4 µM	CCCCC(=N\O)/C(C)=C/c1ccc(F)cc1 [Example 6, (1E,3E)-1-(4-fluorophenyl)-2-methylhept-1-en-3-one oxime]	–
20.6 µM	CC(/C=C/c1ccc(F)cc1)=N\O [Example 11, (2E,3E)-4-(4-fluorophenyl)but-3-en-2-one oxime]	–
> 100 µM	CCCCC(/C=C/c1ccc(F)cc1)=N\O [Example 16, (1E,3E)-1-(4-fluorophenyl)hept-1-en-3-one oxime]	–
3.3 µM	CC(=C\c1ccc(F)cc1)/C(=N/O)C(C)C [Example 8, (1E,3E)-1-(4-fluorophenyl)-2,4-dimethylpent-1-en-3-one oxime]	–
4.6 µM	CCC(=N\O)/C(C)=C/c1ccccc1F [Example 3, (1E,3E)-1-(2-fluorophenyl)-2-methylpent-1-en-3-one oxime]	–
